In patent publication US9289496B2, “Lipid dipeptide and gel” (Nissan Chemical Industries, Ltd., priority 2008, dated 2016):
Residues, ends and D or L forms follow the SMILES beside them.

Columns and labels:
Type in all cases: physicochemical
[1] = Evaluation of gelation of free N-palmitoyl-Gly-His in propylene glycol (PG) solution; design: key: a sample that formed a gel is shown as “O”; a sample that partially formed a gel is shown as “A”; a sample that formed no gel is shown as “X”
Procedure: (§1) Free N-palmitoyl-Gly-His prepared in Example 4 was placed into a screw tube (Maruemu No. 1, manufactured by Maruemu Corp.). Each of the propylene solutions having various concentrations shown in Table 6 was added into the screw tube so as to have a free N-palmitoyl-Gly-His concentration of 0.25%, 0.5%, or 1% (w/v). The mixture was heated at 100° C. with a constant temperature heat block (manufactured by Nippon Genetics Co., Ltd.), and then allowed to stand at room temperature.
In Table, a sample that formed a gel is shown as “O”, a sample that partially formed a gel is shown as “A”, and a sample that formed no gel is shown as “X”.

[2] = Evaluation of gelation of free N-palmitoyl-Gly-His in solution containing inorganic salt, amino acid or organic substance
Procedure: as §1, with “An aqueous solution dissolving each additive described” for “Each of the propylene solutions having various concentrations shown”, “7” for “6”, “0.5%” for “0.25%, 0.5%,”
In Table, a sample that formed a gel is shown as “O”, a sample that partially formed a gel is shown as “A”, and a sample without evaluation is shown as “-”.

[3] = Preparation of film from sheet-shaped gel; details: 0.5% (w/v); 30%, 20% and 10% glycerin aqueous solutions; dissolved at 80° C.
Procedure: Into a screw tube (Maruemu No. 3, manufactured by Maruemu Corp.), 3 mg of N-palmitoyl-Gly-His.TFA salt prepared in Example 1 was placed. Into the screw tube, 0.6 ml of Japanese Pharmacopoeia purified water (Kyoei Pharmaceutical Industries, Ltd.) was added so as to have a concentration of 0.5% (w/v). The whole was heated at 105° C. for 5 minutes, and then allowed to stand at room temperature to prepare a gel of 0.5% N-palmitoyl-Gly-His.TFA salt.
Into the gel, 2 ml of Japanese Pharmacopoeia purified water (Kyoei Pharmaceutical Industries, Ltd.) was further added and sheet formation was observed from a wide view for 72 hours.
Using 10 mg of free N-palmitoyl-Gly-His, each 2.0 mL of 30%, 20%, and 10% glycerin aqueous solutions was added so as to become a 0.5% (w/v) solution, and the mixture solution was heated and dissolved at 80° C. The solution was placed in a glass petri dish having an inner diameter of 2.2 cm and allowed to cool at room temperature. […] Then, the obtained gel was transferred onto a glass substrate.

Measured: Gelation

CCCCCCCCCCCCCCCC(=O)NCC(=O)N[C@@H](Cc1c[nH]cn1)C(=O)O [Example 4, N-Palmitoyl-Gly-His] (HELM PEPTIDE1{[CCCCCCCCCCCCCCCC(=O)[*:2]].G.H}$$$$V2.0)
X: [1]; 0.25% (w/v), mass fraction PG/water + PG 1.0 | [1]; 0.5% (w/v), mass fraction PG/water + PG 1.0 | [1]; 1.0% (w/v), mass fraction PG/water + PG 1.0
gelation was observed in each case: [3]
◯: [1]; 0.25% (w/v), mass fraction PG/water + PG 0.5 | [1]; 0.25% (w/v), mass fraction PG/water + PG 0.7 | [1]; 0.5% (w/v), mass fraction PG/water + PG 0.3 | [1]; 0.5% (w/v), mass fraction PG/water + PG 0.5 | [1]; 0.5% (w/v), mass fraction PG/water + PG 0.7 | [1]; 1.0% (w/v), mass fraction PG/water + PG 0.1 | [1]; 1.0% (w/v), mass fraction PG/water + PG 0.2 | [1]; 1.0% (w/v), mass fraction PG/water + PG 0.3 | [1]; 1.0% (w/v), mass fraction PG/water + PG 0.5 | [1]; 1.0% (w/v), mass fraction PG/water + PG 0.7 | [2]; 0.5% (w/v), aqueous solution of Alanine 0.1 wt % | [2]; 0.5% (w/v), aqueous solution of Aspartic acid 0.27 wt % | [2]; 0.5% (w/v), aqueous solution of Glycine 0.1 wt % | [2]; 0.5% (w/v), aqueous solution of NaCl 0.5 wt % | [2]; 0.5% (w/v), aqueous solution of Phenoxyethanol 0.25 wt % | [2]; 1.0% (w/v), aqueous solution of KCl 0.1 wt % | [2]; 1.0% (w/v), aqueous solution of KCl 0.5 wt % | [2]; 1.0% (w/v), aqueous solution of NaCl 0.1 wt % | [2]; 1.0% (w/v), aqueous solution of NaCl 0.5 wt % | [2]; 1.0% (w/v), aqueous solution of Phenoxyethanol 0.25 wt %
Δ: [1]; 0.25% (w/v), mass fraction PG/water + PG 0.1 | [1]; 0.25% (w/v), mass fraction PG/water + PG 0.2 | [1]; 0.25% (w/v), mass fraction PG/water + PG 0.3 | [1]; 0.5% (w/v), mass fraction PG/water + PG 0.1 | [1]; 0.5% (w/v), mass fraction PG/water + PG 0.2 | [2]; 0.5% (w/v), aqueous solution of KCl 0.1 wt % | [2]; 0.5% (w/v), aqueous solution of KCl 0.5 wt % | [2]; 0.5% (w/v), aqueous solution of Lysine hydrochloride 0.1 wt % | [2]; 0.5% (w/v), aqueous solution of NaCl 0.1 wt %
